Results as given in US20070059687A1, “Process for evaluating phagocytotic function and use thereof” (priority 2001, published 2007).

Assays:
Micrococcus luteus = experiment: Lysis evaluated by decrease in turbidity at 600 nm; type: cell-based; settings: lysozyme 10,000 unit/ml
Procedure: (§1) Enterococcus faecalis was inoculated in 50 ml of the aforementioned BHI liquid medium, and cultured at 37° C. for 8 hours or longer. This culture liquid was centrifuged at 4° C. for 10 minutes at 2,000×g to collect the bacteria, followed by subjecting to a heat treatment in an autoclave (120° C., for 10 minutes) after suspending in PBS. Next, the suspension was centrifuged at 4° C. for 10 minutes at 2,000×g, and the supernatant was discarded. Precipitates were suspended in 1 ml of PBS, and thereafter, subjected to freeze-drying. This freeze-dried sample was suspended in 5 mmol/l Tris-hydrochloric acid (pH 6.0), 2 mmol/l magnesium chloride containing 0 to 10% DMSO to give the samples for N-acetylmuramidase. Further, Micrococcus luteus (JCM1464) was inoculated in 5 ml of BHI liquid medium (supra), and cultured at 37° C. for 8 hours or longer. The cultured bacterial liquid was centrifuged at 4° C. for 10 minutes at 2,000×g to collect the bacteria. After discarding the supernatant, and suspending and washing the bacterial pellet with 5 ml of PBS, centrifugation was conducted once again at 4° C. for 10 minutes at 2,000×g to collect the bacteria. […] Enzymatic activity was evaluated on the basis of the decrease in turbidity of the sample at the absorbance of 600 nm using a microplate reader. […] Additionally, no decrease in enzymatic activity was found with DMSO at the concentration of 2% or less. […] The results are show in FIG. 4(a) to (c) and Table 3 below.

Enterococcus faecalis = experiment: Lysis evaluated by decrease in turbidity at 600 nm; type: cell-based
From the text: (§2) Conditions for the enzyme to lyse Staphylococcus aureus (ATCC 12600), Staphylococcus epidermidis (ATCC 14990), Pseudomonas aeruginosa (ATCC 10145), Enterococcus faecalis (ATCC 19433) and Escherichia coli (ATCC 11775) were studied. For Staphylococcus aureus and Staphylococcus epidermidis, lysostafin was used as the lytic enzyme (Bur. J. Biochem., 38, 293-300, 1973). […] Further, for Pseudomonas aeruginosa and Escherichia coli, PBS containing 70 mmol/l sodium hydroxide was used. Each type of these bacteria was inoculated in 5 ml of BHI (Brain Heart Infusion) liquid medium (manufactured by DIFCO), and cultured at 37° C. for 8 hours or longer. Thus cultured bacterial liquid was collected by centrifugation at 4° C. for 10 minutes at 2,000×g. The collected bacteria were suspended in PBS to give a sample.
(§3) Lysis was evaluated by decrease in turbidity of the bacterial liquid at the absorbance of 600 nm using a microplate reader. Consequently, Staphylococcus aureus and Staphylococcus epidermidis were lysed by lysostafin. In respect of Pseudomonas aeruginosa and Escherichia coli, no enzymatic treatment was required because lysis was conducted with PBS containing 70 mmol/l sodium hydroxide. […] Moreover, when the bacterium incorporated upon phagocytotic action is for example, Pseudomonas aeruginosa, Escherichia coli or the like, bacterial cell wall is lysed during the alkaline treatment to result in the state in which the gene is exposed. Therefore, it is not necessary to conduct this enzymatic treatment. Each enzyme for the pretreatment which is used in lysis of the foreign microorganism according to the present invention is effective not only for the aforementioned bacterial strain, but also for other bacterial strain that includes other genus staphylococcus, genus streptococcus, genus bacillus, genus micrococcus and the like. […] The results are illustrated in FIG. 3, specifically, in regard to: (a) Staphylococcus aureus and Staphylococcus epidermidis, (b) Pseudomonas aeruginosa and Escherichia coli, and (c) Enterococcus faecalis.
as §1

[1] = tested on: Staphylococcus epidermidis; experiment: Lysis evaluated by decrease in turbidity at 600 nm; type: cell-based; settings: lysostafin 50 unit/ml
From the text: as §2, §3, §1

digested samples = experiment: Influence of surfactant added to hybridization solution on signal detection; type: cell-based; settings: for detection sensitivity: surfactant added to the probe dilution solution, SDS 0.25%
Procedure: A solution containing 15 ng of a digoxigenin labelled DNA probe prepared with a probe dilution solution (including 0.25% SDS, 600 μl of salmon sperm DNA, 50 μl of 100× Denhardt's solution, 500 μl of a hybridization stock solution, 2250 μl of formamide, 1000 μl 50% dextran sulfate) is coated on the smeared site, and the slide was left to stand still in a humid box at 37° C. to 42° C. for 2 hours. A probe solution without including SDS was determined as a control. The digoxigenin labelled DNA probe was produced by a nick translation method. Thereafter, a hybridization washing solution (prepared by mixing a hybridization stock solution (13.15 g of sodium chloride, 6.615 g of trisodium citrate dihydrate, adjusted to give the total volume of 75 ml with sterile purified water) in a ratio of the hybridization stock solution:sterile purified water:formamide=5:4:50) was provided in three staining bottles, and sequentially the sample was immersed at 42° C. for 10 minutes, respectively.
The digested samples produced according to the process described in Example 17(1) and [2] were used as specimens. […] In addition, the detection sensitivity could be improved by lauryl sarcosine, BRIJ 35 or Tween 20.

[2] = tested on: specimen A-SA (Staphylococcus aureus); experiment: In situ hybridization of clinical blood specimens of patients suspected of sepsis; type: cell-based; settings: 0.25% SDS added to probe dilution solution, FIG. 1
Procedure: As clinical specimens, 12 specimens of blood collected from patients suspected as suffering from sepsis (specimens A to L) were used. Ten ml of heparinized venous blood was collected from each patient, and after admixing the blood with a reagent for separating blood (225 mg of sodium chloride, 1.5 g of dextran (MW: 200,000-300,000)), adjusted to give the total volume of 25 ml with sterile purified water) at a ratio of 4:1, a leukocyte fraction (upper layer) was obtained by leaving to stand still at 37° C. for 30 minutes. […] The slide glass was immersed in PBS for 10 minutes, and thereafter, in a solution of an enzyme pretreatment reagent (prepared by mixing 1.25 g of saponin, 1.25 ml of t-octylphenoxypolyethoxyethanol (specific gravity: 1.068 to 1.075 (20/4° C.), pH (5 w/v %) 5.5-7.5) and 25 ml of the PBS stock solution, and adjusting to give the total volume of 50 ml with sterile purified water) diluted to 10 fold in sterile purified water, and allowing infiltration on a shaker for 10 minutes. […] Then, it was immersed in PBS containing 0.2 mol/l hydrochloric acid (prepared by adding hydrochloric acid to the PBS stock solution, 20 fold dilution in sterile purified water, and adjusting to give the final concentration of hydrochloric acid of 0.2 mol/l) and allowed infiltration on a shaker for 10 minutes as it was. […] A probe solution without including SDS was determined as a control. […]

EF digested sample = experiment: Enzymatic treatment of digested sample, bacterial bodies in leukocytes by acridine orange staining; type: cell-based, Enterococcus faecalis; settings: N-acetylmuramidase fixed at 100 unit/ml
Procedure: Using the slide glass having each digested sample smeared thereon, the enzymatic pretreatment was performed according to the process described in Example 3. Next, the slide glass after completing the enzymatic pretreatment was placed in a humid box, and the reaction was allowed by dropping 1 ml of each enzyme solution prepared to give each titer on the smeared site of the specimen. Thereafter, the slide glass was immersed in PBS containing 0.2 mol/l hydrochloric acid, and in 70% ethanol respectively, for 10 minutes, and air dried. After immersing this slide glass in PBS containing 70 mmol/l sodium hydroxide for 3 minutes, and in 70% ethanol for 10 minutes, it was air dried and stained with 1% acridine orange staining solution. Then, evaluation was made with a fluorescence microscope (×1,000). For Staphylococcus aureus and Staphylococcus epidermidis, examination of the optimal titer was conducted with lysostafin. […] The determination was made as adequate when no bacterial body was identified in the leukocytes by the enzymatic treatment.
Using a slide glass including each digested sample smeared thereon, examination was conducted according to the process described in example 17 (2). Time period of the enzymatic treatment in this test was 30 minutes, and the temperature for examination was 4° C., 25° C., 37° C., 42° C., and 60° C.
Using the slide glass including each digested sample smeared thereon, examination was conducted according to the process described in example 17 (2). […] Determination was conducted according to the process described in example 17 (2).

C[S+](C)[O-] [DMSO, dimethylsulfoxide]
DMSO concentration at which decrease in activity was found (Micrococcus luteus): ≥ 5% | DMSO concentration at which no decrease in enzymatic activity was found (Micrococcus luteus): ≤ 2% | influence on N-acetylmuramidase activity (Enterococcus faecalis; DMSO 0 to 10%, N-acetylmuramidase 300 unit/ml): hardly influenced | DMSO concentration at which decrease in activity was found [1]: ≥ 5% | DMSO concentration at which no decrease in enzymatic activity was found [1]: ≤ 2%

CCCCCCCCCCCCN(C)CC(=O)O [Lauryl sarcosine]
detection sensitivity (digested samples): improved

CCCCCCCCCCCCOS(=O)(=O)[O-].[Na+] [SDS, sodium dodecyl sulfate]
preferable concentration (digested samples; SDS at various concentrations): ≤ 1% | detection sensitivity (digested samples): dramatically enhanced | detection sensitivity of the signal [2]: markedly elevated

lysozyme: lytic enzyme (Seikagaku Corporation)
Decrease in turbidity of bacteria (Micrococcus luteus; added DMSO 0 % (control)): 0.689 ± 0.028 O.D./3 minutes | Decrease in turbidity of bacteria (Micrococcus luteus; added DMSO 0.1 %): 0.678 ± 0.026 O.D./3 minutes | Decrease in turbidity of bacteria (Micrococcus luteus; added DMSO 1 %): 0.660 ± 0.026 O.D./3 minutes | Decrease in turbidity of bacteria (Micrococcus luteus; added DMSO 2 %): 0.653 ± 0.024 O.D./3 minutes | Decrease in turbidity of bacteria (Micrococcus luteus; added DMSO 5 %): 0.566 ± 0.017 O.D./3 minutes | Decrease in turbidity of bacteria (Micrococcus luteus; added DMSO 10 %): 0.464 ± 0.016 O.D./3 minutes | lytic activity (Enterococcus faecalis; lysozyme in combination with N-acetylmuramidase versus N-acetylmuramidase alone, FIG. 3(c)): more excellent lytic activity | enzymatic treatment determination (EF digested sample; lysozyme titer 10 U/mL): inadequate | enzymatic treatment determination (EF digested sample; lysozyme titer 100 U/mL): inadequate | enzymatic treatment determination (EF digested sample; lysozyme titer 1,000 U/mL): inadequate | enzymatic treatment determination (EF digested sample; lysozyme titer 10,000 U/mL): adequate | enzymatic treatment determination (EF digested sample; lysozyme titer 100,000 U/mL): adequate
